Assay results reported in patent publication US7148232B2, “Oxazolo, thiazolo and selenazolo [4,5-c]-quinolin-4-amines and analogs thereof” (3M Innovative Properties Company, priority 1998, dated 2006).
Structures can show the parent of a compound that is named as a salt. Blank lines part the entries; values can stand above or below the molecule they belong to.

What was measured:
interferon (α) [1] = experiment: Interferon (α) induction in human cells (in vitro human blood cell system, interferon by bioassay); assay type: cell-based; details: human PBM's, 48 hours
Experimental: An in vitro human blood cell system was used to assess interferon induction by compounds of the invention. Activity is based on the measurement of interferon secreted into culture media. Interferon is measured by bioassay.
Whole blood is collected by venipuncture into EDTA vacutainer tubes. Peripheral blood mononuclear cells (PBM's) are separated from whole blood by using either LeucoPREP™ Brand Cell Separation Tubes (available from Becton Dickinson) or Ficoll-Paque® solution (available from Pharmacia LKB Biotechnology Inc, Piscataway, N.J.). […] 200 μL portions of PBM suspension are added to 96 well (flat bottom) sterile tissue culture plates (Becton Dickinson Labware, Lincoln Park, N.J.).
The compounds are solubilized in ethanol, dimethyl sulfoxide or tissue culture water then diluted with tissue culture water, 0.01N sodium hydroxide or 0.01N hydrochloric acid (The choice of solvent will depend on the chemical characteristics of the compound being tested.). Ethanol or DMSO concentration should not exceed a final concentration of 1% for addition to the culture wells. Compounds are initially tested in a concentration range of from about 0.1 μg/mL to about 5 μg/mL. Compounds which show induction at a concentration of 0.5 μg/mL are then tested in a wider concentration range.
The solution of test compound is added in a volume (less than or equal to 50 μL) to the wells containing 200 μL of diluted whole blood or of PBM's in media. Solvent and/or media is added to control wells (wells with no test compound) and as needed to adjust the final volume of each well to 250 μL. The plates are covered with plastic lids, vortexed gently and then incubated for 48 hours at 37° C. with a 5% carbon dioxide atmosphere.
Following incubation, the plates are covered with parafilm and then centrifuged at 1000 rpm for 10 to 15 minutes at 4° C. in a Damon IEC Model CRU-5000 centrifuge. Media (about 200 μL) is removed from 4 to 8 wells and pooled into 2 mL sterile freezing vials. Samples are maintained at −70° C. until analysis.
Interferon is determined by bioassay using A549 human lung carcinoma cells challenged with encephalomyocarditis. The details of the bioassay method have been described by G. L. Brennan and L. H. Kronenberg in “Automated Bioassay of Interferons in Micro-test Plates”, Biotechniques, June/Jul. […] The incubated cells are infected with an inoculum of encephalomyocarditis virus. The infected cells are incubated for an additional period at 37° C. before quantifying for viral cytopathic effect. The viral cytopathic effect is quantified by staining followed by spectrophotometric absorbance measurements. Results are expressed as alpha reference units/mL based on the value obtained for NIH HU IF-L standard.
Compounds of the invention were tested for their ability to induce interferon in human cells using the test method described above.

interferon (α) [2] = experiment: Cytokine induction in human cells: interferon (α) secreted by PBMCs (ELISA or bioassay); assay type: cell-based; details: 18 to 24 hours
Experimental: (§1) An in vitro human blood cell system was used to assess cytokine induction by compounds of the invention.
(§2) Whole blood is collected by venipuncture into EDTA vacutainer tubes from healthy human donors. […] The PBMC suspension is added to 48 well flat bottom sterile tissue culture plates (Costar, Cambridge, Mass. or Becton Dickinson Labware, Lincoln Park, N.J.) containing an equal volume of RPMI complete media containing test compound.
(§3) The compounds are solubilized in dimethyl sulfoxide (DMSO). The DMSO concentration should not exceed a final concentration of 1% for addition to the culture wells.
(§4) The solution of test compound is added at 60 μM to the first well containing RPMI complete and serial 3 fold dilutions are made. The PBMC suspension is then added to the wells in an equal volume, bringing the test compound concentrations to the desired range (0.12 to 30 μM). The final concentration of PBMC suspension is 1.5–2×10^6 cells/mL. The plates are covered with sterile plastic lids, mixed gently and then incubated for 18 to 24 hours at 37° C. in a 5% carbon dioxide atmosphere.
(§5) Following incubation the plates are centrifuged for 5–10 minutes at 1000 rpm (˜200×g) at 4° C. The cell culture supernatant is removed with a sterile polypropylene pipet and transferred to sterile polypropylene tubes. Samples are maintained at −30 to −70° C. until analysis. The samples are analyzed for interferon (α) by either ELISA or bioassay and for tumor necrosis factor (α) by ELISA
Interferon is determined by bioassay using A549 human lung carcinoma cells challenged with encephalomyocarditis. […] Briefly stated the method is as follows: A549 cells are incubated with dilutions of samples or a standard interferon at 37° C. for 24 hours. The incubated cells are then infected with an inoculum of encephalomyocarditis virus. The infected cells are incubated for an additional 24 hours at 37° C. before evaluating for viral cytopathic effect. The viral cytopathic effect is quantified by staining with crystal violet followed by visual scoring of the plates. Results are expressed as alpha reference units/mL based on the value obtained for NIH Human Leukocyte IFN standard.
Interferon (α) concentration is determined by ELISA using a Human Multi-Species kit from PBL Biomedical Laboratories, New Brunswick, N.J. according to the manufacturer's instructions.

[3] = test system: tumor necrosis factor (α); experiment: Cytokine induction in human cells: tumor necrosis factor (α) secreted by PBMCs (ELISA); assay type: cell-based; details: 18 to 24 hours
Experimental: as §1, §2, §3, §4, §5
Tumor necrosis factor (α) (TNF) concentration is determined using ELISA kits available from Genzyme, Cambridge, Mass.; R&D Systems, Minneapolis, Minn.; or Pharmingen, San Diego, Calif. according to the manufacturer's instructions.

melting point: 268 to 270 °C
SMILES: CCc1nc2c(N)nc3ccccc3c2s1.Cl

melting point: 152 to 155 °C
SMILES: Nc1nc2ccccc2c2sc(Cc3ccccc3)nc12 (as salt: hydrochloride) [Example 34, 2-Benzylthiazolo[4,5-c]quinolin-4-amine Hydrochloride]

SMILES: CCCc1nc2c(N)nccc2s1 (as salt: trifluoroacetate) [Example 62, 2-Propylpyrido[3,4-d][1,3]thiazol-4-amine Trifluoroacetate]
melting point: 160 to 162 °C

SMILES: Cl.Nc1nc2ccccc2c2scnc12.O (hydrate or solvate) [Example 5, Thiazolo[4,5-c]quinolin-4-amine Hydrochloride Hydrate]
melting point: 284 to 285 °C

SMILES: Cl.Nc1nc2ccccc2c2scnc12.O [Example 5, Thiazolo[4,5-c]quinolin-4-amine Hydrochloride Hydrate]
Interferon (α) Induction in Human Cells (interferon (α) [1]; Dose Concentration 0.01 μg/mL): − | Interferon (α) Induction in Human Cells (interferon (α) [1]; Dose Concentration 0.05 μg/mL): − | Interferon (α) Induction in Human Cells (interferon (α) [1]; Dose Concentration 0.10 μg/mL): − | Interferon (α) Induction in Human Cells (interferon (α) [1]; Dose Concentration 0.50 μg/mL): − | Interferon (α) Induction in Human Cells (interferon (α) [1]; Dose Concentration 1.0 μg/mL): + | Interferon (α) Induction in Human Cells (interferon (α) [1]; Dose Concentration 5.0 μg/mL): + | Interferon (α) Induction in Human Cells (interferon (α) [1]; Dose Concentration 10.0 μg/mL): + | Interferon (α) Induction in Human Cells (interferon (α) [1]; Dose Concentration 25.0 μg/mL): + | Interferon (α) Induction in Human Cells (interferon (α) [1]; Dose Concentration 50.0 μg/mL): +

SMILES: Nc1nc2ccccc2c2scnc12 [Example 6, Thiazolo[4,5-c]quinolin-4-amine]
melting point: 172.4 °C (dec.)

melting point: 128 °C
SMILES: CCc1nc2c[n+]([O-])c3ccccc3c2s1 [Example 7, 2-Ethylthiazolo[4,5-c]quinoline-5N-oxide]

melting point: 123 °C
SMILES: CCCc1nc2c[n+]([O-])c3ccccc3c2s1 [Example 11, 2-Propylthiazolo[4,5-c]quinoline-5N-oxide]

melting point: 142 to 144 °C
SMILES: CCCCCc1nc2c[n+]([O-])c3ccccc3c2s1 [Example 15, 2-Pentylthiazolo[4,5-c]quinoline-5N-oxide]

melting point: 133 to 135 °C
SMILES: CCCCc1nc2c[n+]([O-])c3ccccc3c2s1 [Example 17, 2-Butylthiazolo[4,5-c]quinoline-5N-oxide]

SMILES: CCCCc1nc2c(N)nc3ccccc3c2s1 [Example 18, 2-Butylthiazolo[4,5-c]quinolin-4-amine]
Interferon (α) Induction in Human Cells (interferon (α) [1]; Dose Concentration 0.01 μg/mL): − | Interferon (α) Induction in Human Cells (interferon (α) [1]; Dose Concentration 0.05 μg/mL): − | Interferon (α) Induction in Human Cells (interferon (α) [1]; Dose Concentration 0.10 μg/mL): + | Interferon (α) Induction in Human Cells (interferon (α) [1]; Dose Concentration 0.50 μg/mL): + | Interferon (α) Induction in Human Cells (interferon (α) [1]; Dose Concentration 1.0 μg/mL): + | Interferon (α) Induction in Human Cells (interferon (α) [1]; Dose Concentration 5.0 μg/mL): + | Interferon (α) Induction (interferon (α) [2]; Dose Concentration 0.12 μM): − | Interferon (α) Induction (interferon (α) [2]; Dose Concentration 0.37 μM): − | Interferon (α) Induction (interferon (α) [2]; Dose Concentration 1.11 μM): + | Interferon (α) Induction (interferon (α) [2]; Dose Concentration 3.33 μM): + | Interferon (α) Induction (interferon (α) [2]; Dose Concentration 10 μM): + | Interferon (α) Induction (interferon (α) [2]; Dose Concentration 30 μM): + | Tumor Necrosis Factor Induction ([3]; Dose Concentration 0.12 μM): + | Tumor Necrosis Factor Induction ([3]; Dose Concentration 0.37 μM): + | Tumor Necrosis Factor Induction ([3]; Dose Concentration 1.11 μM): + | Tumor Necrosis Factor Induction ([3]; Dose Concentration 3.33 μM): + | Tumor Necrosis Factor Induction ([3]; Dose Concentration 10 μM): + | Tumor Necrosis Factor Induction ([3]; Dose Concentration 30 μM): +

melting point: 268 to 270 °C
SMILES: [O-][n+]1cc2nc(/C=C/c3ccccc3)sc2c2ccccc21 [Example 21, 2-(2-Phenyl-1-ethenyl)thiazolo[4,5-c]quinoline-5N-oxide]

melting point: 165 to 169 °C
SMILES: [O-][n+]1cc2nc(CCc3ccccc3)sc2c2ccccc21 [Example 23, 2-(2-Phenyl-1-ethyl)thiazolo[4,5-c]quinoline-5N-oxide]

melting point: 187 to 189 °C
SMILES: CC(C)(O)Cc1nc2c[n+]([O-])c3ccccc3c2s1 [Example 25, 2-Methyl-1-(thiazolo[4,5-c]quinolin-2-yl)-2-propanol-5N-oxide]

melting point: 138 to 140 °C
SMILES: CCOCc1nc2c[n+]([O-])c3ccccc3c2s1 [Example 27, 2-(Ethoxymethyl)thiazolo[4,5-c]quinoline-5N-oxide]

melting point: 185 to 186 °C
SMILES: [O-][n+]1cc2nc(Cc3ccccc3)sc2c2ccccc21 [Example 33, 2-Benzylthiazolo[4,5-c]quinoline-5N-oxide]

SMILES: Nc1nc2ccccc2c2sc(Cc3ccccc3)nc12 [Example 34, 2-Benzylthiazolo[4,5-c]quinolin-4-amine Hydrochloride]
Interferon (α) Induction in Human Cells (interferon (α) [1]; Dose Concentration 0.01 μg/mL): − | Interferon (α) Induction in Human Cells (interferon (α) [1]; Dose Concentration 0.05 μg/mL): − | Interferon (α) Induction in Human Cells (interferon (α) [1]; Dose Concentration 0.10 μg/mL): − | Interferon (α) Induction in Human Cells (interferon (α) [1]; Dose Concentration 0.50 μg/mL): − | Interferon (α) Induction in Human Cells (interferon (α) [1]; Dose Concentration 1.0 μg/mL): − | Interferon (α) Induction in Human Cells (interferon (α) [1]; Dose Concentration 5.0 μg/mL): −

melting point: 143 to 145 °C
SMILES: CCCc1nc2c[n+]([O-])c3ccc(C)cc3c2s1 [Example 35, 8-Methyl-2-propylthiazolo[4,5-c]quinoline-5N-oxide]

melting point: 120 to 121 °C
SMILES: CCCCc1nc2c[n+]([O-])c3ccccc3c2o1 [Example 40, 2-Butyloxazolo[4,5-c]quinoline-5N-oxide]

SMILES: CCCCc1nc2c(N)nc3ccccc3c2o1 [Example 41, 2-Butyloxazolo[4,5-c]quinolin-4-amine]
Interferon (α) Induction in Human Cells (interferon (α) [1]; Dose Concentration 0.01 μg/mL): + | Interferon (α) Induction in Human Cells (interferon (α) [1]; Dose Concentration 0.05 μg/mL): + | Interferon (α) Induction in Human Cells (interferon (α) [1]; Dose Concentration 0.10 μg/mL): + | Interferon (α) Induction in Human Cells (interferon (α) [1]; Dose Concentration 0.50 μg/mL): + | Interferon (α) Induction in Human Cells (interferon (α) [1]; Dose Concentration 1.0 μg/mL): + | Interferon (α) Induction in Human Cells (interferon (α) [1]; Dose Concentration 5.0 μg/mL): +

melting point: 245 to 247 °C
SMILES: CS(=O)(=O)c1nc2c[n+]([O-])c3ccccc3c2s1 [Example 51, 2-(Methylsulfonyl)thiazolo[4,5-c]quinolin-5N-oxide]

melting point: 241 to 242 °C
SMILES: [O-][n+]1cc2nc(N3CCOCC3)sc2c2ccccc21 [Example 52, 2-(4-Morpholino)thiazolo[4,5-c]quinoline-5N-oxide]

melting point: 65 to 69 °C
SMILES: CCCCc1nc2c[n+]([O-])c3cccnc3c2s1 [Example 57, 2-Butylthiazolo[4,5-c][1,5]naphthyridine-5N-oxide]

SMILES: CCCc1nc2c(N)nccc2s1 [Example 62, 2-Propylpyrido[3,4-d][1,3]thiazol-4-amine Trifluoroacetate]
Interferon (α) Induction (interferon (α) [2]; Dose Concentration 0.12 μM): − | Interferon (α) Induction (interferon (α) [2]; Dose Concentration 0.37 μM): − | Interferon (α) Induction (interferon (α) [2]; Dose Concentration 1.11 μM): − | Interferon (α) Induction (interferon (α) [2]; Dose Concentration 3.33 μM): − | Interferon (α) Induction (interferon (α) [2]; Dose Concentration 10 μM): − | Interferon (α) Induction (interferon (α) [2]; Dose Concentration 30 μM): − | Tumor Necrosis Factor Induction ([3]; Dose Concentration 0.12 μM): − | Tumor Necrosis Factor Induction ([3]; Dose Concentration 0.37 μM): − | Tumor Necrosis Factor Induction ([3]; Dose Concentration 1.11 μM): − | Tumor Necrosis Factor Induction ([3]; Dose Concentration 3.33 μM): − | Tumor Necrosis Factor Induction ([3]; Dose Concentration 10 μM): − | Tumor Necrosis Factor Induction ([3]; Dose Concentration 30 μM): −
